Measured values from patent publication US20100144779A1, “Marine Alkalod Makaluvamines and Derivatives Thereof” (THE UAB RESEARCH FOUNDATION, priority 2007, published 2010).

Assays:
Assay in all cases: NCI60 cell line screen (SRB)
Type in all cases: cell-based, human
A498 = conditions: Homo sapiens; A498, Renal Cancer; 48 h
Procedure: (§1) This panel implements the NCI60 cell line screen, including leukemia, non-small cell lung cancer, colon cancer, central nervous system cancer, melanoma, ovarian cancer, renal cancer, prostate cancer and breast cancer. The cell lines tested are specified in Table 3.
(§2) Generally, the human tumor cell lines of the cancer screening panel are grown in RPMI 1640 medium containing 5% fetal bovine serum and 2 mM L-glutamine. For a typical screening experiment, cells are inoculated into 96 well microtiter plates in 100 μL at plating densities ranging from 5,000 to 40,000 cells/well depending on the doubling time of individual cell lines. After cell inoculation, the microtiter plates are incubated at 37° C., 5% CO2, 95% air and 100% relative humidity for 24 h prior to addition of experimental drugs. After 24 h, two plates of each cell line are fixed in situ with TCA, to represent a measurement of the cell population for each cell line at the time of drug addition (Tz). Experimental drugs are solubilized in dimethyl sulfoxide at 400-fold the desired final maximum test concentration and stored frozen prior to use. At the time of drug addition, an aliquot of frozen concentrate is thawed and diluted to twice the desired final maximum test concentration with complete medium containing 50 μg/ml gentamicin. Additional four, 10-fold or ½ log serial dilutions are made to provide a total of five drug concentrations plus control. Aliquots of 100 μl of these different drug dilutions are added to the appropriate microtiter wells already containing 100 μl of medium, resulting in the required final drug concentrations.
(§3) Following drug addition, the plates are incubated for an additional 48 h at 37° C., 5% CO2, 95% air, and 100% relative humidity. For adherent cells, the assay is terminated by the addition of cold TCA. Cells are fixed in situ by the gentle addition of 50 μl of cold 50% (w/v) TCA (final concentration, 10% TCA) and incubated for 60 minutes at 4° C. The supernatant is discarded, and the plates are washed five times with tap water and air dried. Sulforhodamine B (SRB) solution (100 μl) at 0.4% (w/v) in 1% acetic acid is added to each well, and plates are incubated for 10 minutes at room temperature. After staining, unbound dye is removed by washing five times with 1% acetic acid and the plates are air dried. Bound stain is subsequently solubilized with 10 mM trizma base, and the absorbance is read on an automated plate reader at a wavelength of 515 nm. For suspension cells, the methodology is the same except that the assay is terminated by fixing settled cells at the bottom of the wells by gently adding 50 μl of 80% TCA (final concentration, 16% TCA). Using the seven absorbance measurements (time zero, Tz, control growth, (control), and test growth in the presence of drug at the five concentration levels (Ti)), the percentage growth is calculated at each of the drug concentrations levels. Percentage growth inhibition is calculated as:
(§4) [(Ti−Tz)/(C−Tz)]×100 for concentrations for which Ti>/=Tz
(§5) [(Ti−Tz)/Tz]×100 for concentrations for which Ti<Tz.

BT-459 = conditions: Homo sapiens; BT-459, Breast Cancer; 48 h
Procedure: as §1, §2, §3, §4, §5

CCRF-CEM = conditions: Homo sapiens, Leukemia, 48 h
Procedure: as §1, §2, §3, §4, §5

DU-145 = conditions: Homo sapiens; DU-145, Prostate Cancer; 48 h
Procedure: as §1, §2, §3, §4, §5

HCC-2998 = conditions: Homo sapiens; HCC-2998, Colon Cancer; 48 h
Procedure: as §1, §2, §3, §4, §5

HCT-116 = conditions: Homo sapiens; HCT-116, Colon Cancer; 48 h
Procedure: as §1, §2, §3, §4, §5

HL-60 = conditions: Homo sapiens; HL-60, Leukemia; 48 h
Procedure: as §1, §2, §3, §4, §5

HT-29 = conditions: Homo sapiens; HT-29, Colon Cancer; 48 h
Procedure: as §1, §2, §3, §4, §5

LOX IMVI = conditions: Homo sapiens, Melanoma, 48 h
Procedure: as §1, §2, §3, §4, §5

MALME-3M = conditions: Homo sapiens, Melanoma, 48 h
Procedure: as §1, §2, §3, §4, §5

MCF-7 = conditions: Homo sapiens, MCF7; MCF-7, Breast Cancer; 48 h
Procedure: as §1, §2, §3, §4, §5

MDA-MB-231/ATCC = conditions: Homo sapiens, Breast Cancer, 48 h
Procedure: as §1, §2, §3, §4, §5

MDA-MB-435 = conditions: Homo sapiens; MDA-MB-435, Breast Cancer; 48 h
Procedure: as §1, §2, §3, §4, §5

MOLT-4 = conditions: Homo sapiens; MOLT-4, Leukemia; 48 h
Procedure: as §1, §2, §3, §4, §5

NCI-H460 = conditions: Homo sapiens; NCI-H460, Non-Small Cell Lung Cancer; 48 h
Procedure: as §1, §2, §3, §4, §5

OVCAR3 = conditions: Homo sapiens, OVCAR-3; OVCAR3, Ovarian Cancer; 48 h
Procedure: as §1, §2, §3, §4, §5

OVCAR4 = conditions: Homo sapiens, OVCAR-4; OVCAR4, Ovarian Cancer; 48 h
Procedure: as §1, §2, §3, §4, §5

RPMO-8226 = conditions: Homo sapiens; RPMO-8226, Leukemia; 48 h
Procedure: as §1, §2, §3, §4, §5

SF-268 = conditions: Homo sapiens; SF-268, CNS Cancer; 48 h
Procedure: as §1, §2, §3, §4, §5

SF-295 = conditions: Homo sapiens; SF-295, CNS Cancer; 48 h
Procedure: as §1, §2, §3, §4, §5

SF-539 = conditions: Homo sapiens; SF-539, CNS Cancer; 48 h
Procedure: as §1, §2, §3, §4, §5

SK-OV-3 = conditions: Homo sapiens; SK-OV-3, Ovarian Cancer; 48 h
Procedure: as §1, §2, §3, §4, §5

SN12C = conditions: Homo sapiens, Renal Cancer, 48 h
Procedure: as §1, §2, §3, §4, §5

SR = conditions: Homo sapiens, Leukemia, 48 h
Procedure: as §1, §2, §3, §4, §5

UACC-62 = conditions: Homo sapiens; UACC-62, Melanoma; 48 h
Procedure: as §1, §2, §3, §4, §5

UO-31 = conditions: Homo sapiens; UO-31, Renal Cancer; 48 h
Procedure: as §1, §2, §3, §4, §5

Compound: O=C(O)C(F)(F)F.O=C1C(NCc2ccc(F)cc2)=CC2=NCCc3c[nH]c1c32 [Compound 28]
- GI50 (A498): 3110 nM
- GI50 (BT-459): 3140 nM
- GI50 (CCRF-CEM): 1430 nM
- GI50 (DU-145): 1080 nM
- GI50 (HCC-2998): 2700 nM
- GI50 (HCT-116): 715 nM
- GI50 (HL-60): 1530 nM
- GI50 (HT-29): 596 nM
- GI50 (LOX IMVI): 1570 nM
- GI50 (MALME-3M): 208 nM
- GI50 (MCF-7): 160 nM
- GI50 (MDA-MB-231/ATCC): 725 nM
- GI50 (MDA-MB-435): 1750 nM
- GI50 (MOLT-4): 793 nM
- GI50 (NCI-H460): 816 nM
- GI50 (OVCAR3): 2230 nM
- GI50 (OVCAR4): 1090 nM
- GI50 (RPMO-8226): 559 nM
- GI50 (SF-268): 1660 nM
- GI50 (SF-295): 1060 nM
- GI50 (SF-539): 1740 nM
- GI50 (SK-OV-3): 3150 nM
- GI50 (SN12C): 1950 nM
- GI50 (SR): 1210 nM
- GI50 (UACC-62): 1560 nM
- GI50 (UO-31): 2590 nM
